Laboratory results published in patent US20240425517A1, “NOVEL COMPOUND FOR DEGRADATION OF TARGET PROTEIN OR POLYPEPTIDE BY POLYUBIQUITINATION” (PRAZER THERAPEUTICS INC., priority 2021, published 2024).

Legend:
p38 proteins = target: T1, p38 proteins (Mus musculus, UniProt P47811); assay: Degradation of p38 in Raw 264.7 macrophages (Western blot densitometry); assay type: cell-based; details: 10 μM, 24 hours
T1 construct: endogenous in cells; host or cells: RAW 264.7
Experimental: To confirm that the compounds (p38 degraders) of Preparation Examples I″′ to III″′ reduce the amount of phospho-p38 (p-p38) proteins, experiments were performed using Raw 264.7 macrophages. Since p38 MAPK alpha is activated through the process of phosphorylation of threonine 180 (Thr180) and tyrosine 182 (Tyr182) residues by MKK3, MKK6, and the like, which are upstream regulators, phosphorylation of these residues was generally detected using an antibody (3D7 rabbit monoclonal antibody from Cell Signaling, Inc.) that specifically recognizes phospho-p38 (p-p38) MAPK in which p38 MAPK alpha was activated.
Specifically, the RAW 264.7 cells were cultured in DMEM medium containing 10% fetal bovine serum (FBS), 1% penicillin, and streptomycin (100 U/mL), transferred to a 6-well plate, and after 24 hours, the p38 degraders were diluted in the DMEM culture medium and the cells were treated with 10 μM concentration thereof. After treatment, the cells were incubated in a CO2 incubator for 24 hours. Through protein immunoblotting (Western Blot), the degrading capacity of each compound against p38 and p-p38 proteins in cells was confirmed. After cell culture was completed according to the experimental conditions, the cells were collected and centrifuged at 1,800 rpm for 3 minutes. The cells in the precipitate were lysed with RIPA (25 mM Tris-HCl pH 7.6, 150 mM NaCl, 1% NP-40, 1% sodium deoxycholate, 0.1% SDS, 1× Protease Inhibitor Cocktail), 5× sample buffer was added, and then heated at 100° C. for 15 minutes. The prepared sample was electrophoresed with sodium dodecyl sulfate poly acrylamide gel electrophoresis (SDS-PAGE), and then the proteins in the gel were transferred to a PVDF membrane using Trans-Blot Turbo. The membrane was treated with a 5% bovine serum albumin (BSA) solution and blocked at room temperature for 2 hours, and then p-p38, p38, and R-actin antibodies were diluted in the 5% BSA solution to react with the membrane at 4° C. overnight. After washed with PBST (phosphate-based saline containing 0.5% Tween20) 5 times, horse radish peroxidase (HRP)-conjugated secondary antibodies were diluted in PBST to react at room temperature for 2 hours, and then washed again with a PBST solution 5 times. After enzyme-substrate reaction was carried out using a HRP substrate, a signal was measured with chemi-doc equipment, and the densitometry of bands corresponding to the p-p38 and p38 proteins detected in the Preparation Example Compounds was quantitatively analyzed. The case when the degrading capacity of each p38 degrader was reduced by less than 40% is indicated as +, the case when the degrading capacity was reduced by 40% to 70% (exclusive of 70) is indicated as ++, the case when the degrading capacity was reduced by 70% or more is indicated as +++ in Tables 24 to 26 below. As shown in the following Tables, it was confirmed that the compounds of Preparation Examples I″′ to III″′ according to the present invention have excellent degrading capacity.

Aurora A proteins = target: T2, Aurora A proteins (Homo sapiens, UniProt O14965); assay: Degradation of Aurora A protein in MM.1S cell lines (Western blot densitometry); assay type: cell-based; details: for Aurora A degradation (%) at 5 µM: MM1.S, 24 h, read-out: Aurora A degrading capacity (%)
T2 construct: endogenous in cells; host or cells: MM.1S
T2 sequence (O14965 1-403): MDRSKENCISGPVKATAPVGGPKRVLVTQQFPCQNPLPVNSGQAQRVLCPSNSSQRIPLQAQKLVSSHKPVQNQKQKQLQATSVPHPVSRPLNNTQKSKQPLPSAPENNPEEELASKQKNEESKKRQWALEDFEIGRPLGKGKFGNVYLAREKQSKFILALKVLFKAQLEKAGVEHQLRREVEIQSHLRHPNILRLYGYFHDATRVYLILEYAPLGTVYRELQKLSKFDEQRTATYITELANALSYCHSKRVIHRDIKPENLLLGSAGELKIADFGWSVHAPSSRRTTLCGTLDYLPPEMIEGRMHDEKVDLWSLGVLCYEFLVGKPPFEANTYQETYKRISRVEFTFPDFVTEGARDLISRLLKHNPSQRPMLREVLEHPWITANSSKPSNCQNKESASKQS
Experimental: Specifically, the MM.1S cells were cultured in RPMI-1640 medium containing 10% fetal bovine serum (FBS), 1% penicillin, and streptomycin (100 U/mL), transferred to a 6-well plate, and after 24 hours, the Aurora A degraders were diluted in the RPMI culture medium and cells were treated with 5 μM concentration thereof. After treatment, the cells were incubated in a CO2 incubator for 24 hours. […] After cell culture was completed according to the experimental conditions, the cells were collected and centrifuged at 1,800 rpm for 3 minutes. The cells in the precipitate were lysed with RIPA (25 mM Tris-HCl pH 7.6, 150 mM NaCl, 1% NP-40, 1% sodium deoxycholate, 0.1% SDS, 1× Protease Inhibitor Cocktail), 5× sample buffer was added, and then heated at 100° C. for 15 minutes. The prepared sample was electrophoresed with sodium dodecyl sulfate poly acrylamide gel electrophoresis (SDS-PAGE), and then the proteins in the gel were transferred to a PVDF membrane using Trans-Blot Turbo. The membrane was treated with a 5% bovine serum albumin (BSA) solution and blocked at room temperature for 2 hours, and then Aurora A and R-actin antibodies were diluted in the 5% BSA solution to react with the membrane at 4° C. overnight. After washed with PBST (0.5% Tween20) 5 times, horse radish peroxidase (HRP)-conjugated secondary antibodies were diluted in PBST to react at room temperature for 2 hours, and then washed again with a PBST solution 5 times. After enzyme-substrate reaction was carried out using a HRP substrate, a signal was measured with chemi-doc equipment, and the densitometry of a band corresponding to the Aurora A protein detected in the Preparation Example Compounds was quantitatively analyzed. The case when the degrading capacity of each Aurora A degrader was reduced by less than 40% is indicated as +, the case when the degrading capacity was reduced by 40% to 70% (exclusive of 70) is indicated as ++, the case when the degrading capacity was reduced by 70% or more is indicated as +++ in Tables 20 to 23 below.

ubiquitin = target: T3, ubiquitin (Homo sapiens, UniProt P0CG47); assay: Direct binding to ubiquitin: in vitro ubiquitination and intact protein analysis (UPLC-Q/TOF or MALDI-TOF); details: 10 μM, ubiquitin 1 mg/mL, E1, E2, E3 (ITCH/AIP4), ATP, 37° C., 4 hours
T3 construct: mixed with 1 mg/mL of ubiquitin
Experimental: To confirm that the compounds represented by Formulae V to VIII of the present invention directly bind to ubiquitin, in vitro ubiquitination assay was performed, and then the compounds of Preparation Examples I′ to IV″′ (BRD4 degraders) bound to ubiquitin, a BRD4 inhibitor, and ubiquitin were detected using intact protein analysis. The intact protein analysis is a method capable of measuring a compound bound to a protein by mass spectrometry without protease pretreatment. Experiments were performed using ITCH/AIP4 proteins (manufacturer: R&D System), which are E3 ligases, in order to bind ubiquitin and BRD4 degraders in vitro.
Specifically, 10 μM of each degrader was mixed with 1 mg/mL of ubiquitin, 10× buffer, 5 nM of E1, 100 nM of E2, 14 nM of E3, and 1 mM of ATP to react in a 37° C. incubator for 4 hours. To the reacted samples, acetonitrile and formic acid were added for UPLC-Q/TOF or MALDI-TOF analysis, resulting in the final concentrations of 50% acetonitrile and 0.1% formic acid, respectively. For UPLC-Q/TOF, a Micromass Q-TOF micro Synapt High-definition mass spectrometer equipped with ESI was used to perform the mass spectrometry. […] The experimental results were analyzed using TOF/TOF™ Series Explorer™ software version 4.0.

T1 sequence (P47811 whole entry): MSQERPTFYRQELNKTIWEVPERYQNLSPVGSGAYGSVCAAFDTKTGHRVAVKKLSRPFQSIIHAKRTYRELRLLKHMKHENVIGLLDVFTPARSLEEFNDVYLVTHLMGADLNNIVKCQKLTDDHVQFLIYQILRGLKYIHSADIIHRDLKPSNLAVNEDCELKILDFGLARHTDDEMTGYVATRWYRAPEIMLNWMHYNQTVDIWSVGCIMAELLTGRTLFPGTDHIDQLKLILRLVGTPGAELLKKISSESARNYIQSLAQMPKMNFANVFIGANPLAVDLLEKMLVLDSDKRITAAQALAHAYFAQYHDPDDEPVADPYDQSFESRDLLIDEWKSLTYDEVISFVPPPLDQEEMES

Structure (SMILES)	p38 degrading capacity (%) (p38 proteins)	also measured
Cc1ccc(C(=O)NC2CC2)cc1-c1ccc(C(=O)c2ccc(OCCOC(=O)Nc3ccc(C#CCN)cc3)cc2)cc1.Cl [1-1″′, 2-(4-(5′-(cyclopropylcarbamoyl)-2′-methyl-[1,1′-biphenyl]-4-carbonyl)phenoxy)ethyl (4-(3-aminoprop-1-yn-1-yl)phenyl)carbamate hydrochloride]	+++ (the degrading capacity was reduced by 70% or more)	–
Cc1ccc(C(=O)NC2CC2)cc1-c1ccc(C(=O)c2ccc(OCCOC(=O)Nc3ccc(C#CC(N)CO)cc3)cc2)cc1.Cl (centres unmarked) [3-49″′, 2-(4-(5′-(cyclopropylcarbamoyl)-2′-methyl-[1,1′-biphenyl]-4-carbonyl)phenoxy)ethyl (4-(3-amino-4-hydroxybut-1-yn-1-yl)phenyl)carbamate hydrochloride]	+++ (the degrading capacity was reduced by 70% or more)	–
Cc1ccc(C(=O)NC2CC2)cc1-c1ccc(C(=O)c2ccc(OCCOC(=O)NCCCNC(=O)c3ccc(C#CCN)o3)cc2)cc1 [4-166″′, 2-(4-(5′-(cyclopropylcarbamoyl)-2′-methyl-[1,1′-biphenyl]-4-carbonyl)phenoxy)ethyl (3-(5-(3-aminoprop-1-yn-1-yl)furan-2-carboxamido)propyl)carbamate trifluoroacetic acid]	+++ (the degrading capacity was reduced by 70% or more)	–
COc1cc(Nc2ncc3c(n2)-c2ccc(Cl)cc2C(c2c(F)cccc2OC)=NC3)ccc1C(=O)NCCCCCC(=O)Nc1cccc(C#CCN)c1 [5-104″, N-(6-((3-(3-aminoprop-1-yn-1-yl)phenyl)amino)-6-oxohexyl)-4-((9-chloro-7-(2-fluoro-6-methoxyphenyl)-5H-benzo[c]pyrimido[4,5-e]azepin-2-yl)amino)-2-methoxybenzamide trifluoroacetic acid]	–	Aurora A degradation (%) at 5 µM (Aurora A proteins): > 70%
COC(=O)c1ccc(NC(=O)CCCC(=O)OCCOc2ccc(C(=O)c3ccc(-c4cc(C(=O)NC5CC5)ccc4C)cc3)cc2)cc1C#CCN.Cl [5-106″′, methyl 2-(3-aminoprop-1-yn-1-yl)-4-(5-(2-(4-(5′-(cyclopropylcarbamoyl)-2′-methyl-[1,1′-biphenyl]-4-carbonyl)phenoxy)ethoxy)-5-oxopentanamido)benzoate hydrochloride]	+++ (the degrading capacity was reduced by 70% or more)	–
COC(=O)c1ccc(C#CCNC(=O)c2ccc(Nc3ncc4c(n3)-c3ccc(Cl)cc3C(c3c(F)cccc3OC)=NC4)cc2OC)cc1C#CCN [5-116″, methyl 2-(3-aminoprop-1-yn-1-yl)-4-(3-(4-((9-chloro-7-(2-fluoro-6-methoxyphenyl)-5H-benzo[c]pyrimido[4,5-e]azepin-2-yl)amino)-2-methoxybenzamido)prop-1-yn-1-yl)benzoate trifluoroacetic acid]	–	Aurora A degradation (%) at 5 µM (Aurora A proteins): > 70%
COC(=O)c1ccc(C#CCNC(=O)OCCOc2ccc(C(=O)c3ccc(-c4cc(C(=O)NC5CC5)ccc4C)cc3)cc2)cc1C#CCN.Cl [5-116″′, methyl 2-(3-aminoprop-1-yn-1-yl)-4-(3-(((2-(4-(5′-(cyclopropylcarbamoyl)-2′-methyl-[1,1′-biphenyl]-4-carbonyl)phenoxy)ethoxy)carbonyl)amino)prop-1-yn-1-yl)benzoate hydrochloride]	+++ (the degrading capacity was reduced by 70% or more)	–
COC(=O)c1ccc(C(=O)N2CCN(C(=O)OCCOc3ccc(C(=O)c4ccc(-c5cc(C(=O)NC6CC6)ccc5C)cc4)cc3)CC2)cc1C#CCN [5-140″′, 2-(4-(5′-(cyclopropylcarbamoyl)-2′-methyl-[1,1′-biphenyl]-4-carbonyl)phenoxy)ethyl 4-(3-(3-aminoprop-1-yn-1-yl)-4-(methoxycarbonyl)benzoyl)piperazine-1-carboxylate trifluoroacetic acid]	+++ (the degrading capacity was reduced by 70% or more)	–
COC(=O)c1ccc(N(C)C(=O)CCCNC(=O)c2ccc(Nc3ncc4c(n3)-c3ccc(Cl)cc3C(c3c(F)cccc3OC)=NC4)cc2OC)cc1C#CCN [5-150″, methyl 2-(3-aminoprop-1-yn-1-yl)-4-(4-(4-((9-chloro-7-(2-fluoro-6-methoxyphenyl)-5H-benzo[c]pyrimido[4,5-e]azepin-2-yl)amino)-2-methoxybenzamido)-N-methylbutanamido)benzoate trifluoroacetic acid]	–	Aurora A degradation (%) at 5 µM (Aurora A proteins): < 40%
COc1cc(Nc2ncc3c(n2)-c2ccc(Cl)cc2C(c2c(F)cccc2OC)=NC3)ccc1C(=O)O [Formula 2, reference compound]	–	Aurora A degrading capacity (Aurora A proteins; MM.1S cells, 5 μM, 24 hours, Western blot, control group): 0%
Cc1sc2c(c1C)C(c1ccc(Cl)cc1)=N[C@@H](CC(=O)OC(C)(C)C)c1nnc(C)n1-2 [JQ1]	–	molecular weight peak of ubiquitin bound to the compound (intact protein analysis, FIGS. 3A-3J) (ubiquitin): not detected
